Measured values taken from patent US20260224465A1, “COMPOSITIONS COMPRISING A RETINOID AND A PROCESSED OAT INGREDIENT” (Kenvue Brands LLC, priority 2023, published 2026).

Tests used:
Assay type in all cases: cell-based
IL8 [1] = experiment: IL8 gene expression (qPCR) in primary human dermal fibroblasts; conditions: 30 hours of treatment, normalized against POLR2A, concentration given by sample
Procedure: (§1) CRAPB2, IL8 and HAS2 were evaluated in several samples containing fermented oat, retinol, and combinations of the two in varying amounts. Retinol (BASF, 50C) was prepared by dissolving Retinol in Dimethyl Sulfoxide (DMSO) for a concentration of 20% Retinol. Retinol was then further diluted in DMEM with GlutaMAX media supplemented with 1% FBS and 1X Penn/Strep for a stock concentration of (1.1×10^−4) % and (1.1×10^−5) % Retinol. […] Fermented Oat (aurafirm P, Oat Cosmetics, Hampshire, United Kingdom; INCI Aqua, Avena sativa (Oat) Kernel Extract, Lactobacillus Ferment, Sodium Benzoate, Potassium Sorbate) was diluted in media to provide 0.2% and 1.0% Fermented Oat solutions. Primary human dermal fibroblasts were acquired from Lifeline Cell Technology, LLC (Frederick, MD 21701; lot 0967). The donor demographics were as follows: person, fibroblasts isolated from breast. Fibroblasts were cultured and expanded using Dermal Fibroblast Culture Medium (Zenbio, Inc, Durham, NC 27713). […] The cDNA was evaluated by qPCR (using the QuantStudio™ 7 Flex Real-Time PCR System from Applied Biosystems, Waltham, MA). […] The fold changes were calculated in comparison to the untreated control and two-tailed two-sample Student t-tests (Microsoft Office Excel 2007; Microsoft, Redmond, WA, USA) were performed. […]

CRABP2 [2] = experiment: CRABP2 gene expression (qPCR) in primary human dermal fibroblasts; conditions: 30 hours of treatment, normalized against POLR2A, concentration given by sample
Procedure: as §1

HAS2 = HAS2 gene expression (qPCR) in primary human dermal fibroblasts; conditions: 30 hours of treatment, normalized against POLR2A, concentration given by sample
Procedure: as §1

HBEGF = HBEGF gene expression (qPCR) in human skin explants; conditions: human abdominal skin explants, topical 4 μL in PgETOH, 48 hours
Procedure: (§2) Propylene glycol/ethanol (PgETOH) (3:7) (w/w) was used as a vehicle. 1% Colloidal oat (Avena Sativa Kernel Flour, Oat Cosmetics, Southampton, United Kingdom) and 0.1% Retinol solutions were each prepared in PgETOH as shown in Tables 4-7. Combinations were prepared by adding the appropriate amount of test solutions to arrive at the final concentrations as shown. Abdominal skin samples were obtained from human adults undergoing abdominoplasty surgery. Informed consent was obtained from each patient, and all experimental steps were approved by an institutional review board (IRB). Subcutaneous fat was carefully removed and skin biopsies of 0.93 cm^2 were prepared under sterile conditions and acclimated in DMEM/F12 (1:1) medium, 2% heat-inactivated fetal bovine serum, 10 μg/mL insulin, 10 ng/mL hydrocortisone, 10 ng/mL EGF, 1x ABAM under a 5% CO2 humidified atmosphere overnight. Skin explants were treated topically with 4 μL of each formulation for 48 hours. […] The fold changes were calculated in comparison to the untreated or vehicle controls and two-tailed two-sample Student t-tests (Microsoft Office Excel 2007; Microsoft, Redmond, WA, USA) were performed. Synergies were calculated as described above. […]

IL8 [3] = experiment: IL8 gene expression (qPCR) in human skin explants; conditions: human abdominal skin explants, topical 4 μL in PgETOH, 48 hours
Procedure: Propylene glycol/ethanol (PgETOH) (3:7) (w/w) was used as a vehicle. 1% Colloidal oat (Avena Sativa Kernel Flour, Oat Cosmetics, Southampton, United Kingdom) and 0.1% Retinol solutions were each prepared in PgETOH as shown in Tables 4-7. Combinations were prepared by adding the appropriate amount of test solutions to arrive at the final concentrations as shown.
Abdominal skin samples were obtained from human adults undergoing abdominoplasty surgery. Informed consent was obtained from each patient, and all experimental steps were approved by an institutional review board (IRB). Subcutaneous fat was carefully removed and skin biopsies of 0.93 cm^2 were prepared under sterile conditions and acclimated in DMEM/F12 (1:1) medium, 2% heat-inactivated fetal bovine serum, 10 μg/mL insulin, 10 ng/mL hydrocortisone, 10 ng/mL EGF, 1x ABAM under a 5% CO2 humidified atmosphere overnight. Skin explants were treated topically with 4 μL of each formulation for 48 hours. […]
Reverse transcription (RT) was performed using the Applied Biosystems High Capacity Reverse Transcription Kit (ThermoFisher Scientific, Bridgewater, NJ). […] The fold changes were calculated in comparison to the untreated or vehicle controls and two-tailed two-sample Student t-tests (Microsoft Office Excel 2007; Microsoft, Redmond, WA, USA) were performed. Synergies were calculated as described above. […]

CRABP2 [4] = experiment: CRABP2 gene expression (qPCR) in human skin explants; conditions: human abdominal skin explants, topical 4 μL in PgETOH, 48 hours
Procedure: as §2

HAS3 = HAS3 gene expression (qPCR) in human skin explants; conditions: human abdominal skin explants, topical 4 μL in PgETOH, 48 hours
Procedure: as §2

| SMILES | IL8 Average Fold Change over untreated (IL8 [1]) [fold] | CRABP2 Average Fold Change over untreated (CRABP2 [2]) [fold] | HAS2 Average Fold Change over untreated (HAS2) [fold] | HBEGF Average Fold Change over untreated (HBEGF) [fold] | IL8 Average Fold Change over untreated (IL8 [3]) [fold] | CRABP2 Average Fold Change over untreated (CRABP2 [4]) [fold] | HAS3 Average Fold Change over untreated (HAS3) [fold] |
| --- | --- | --- | --- | --- | --- | --- | --- |
| CC1=C(/C=C/C(C)=C/C=C/C(C)=C/CO)C(C)(C)CCC1 [Sample 1-3, Retinol] | 18.83 | 4.25 | 0.50 | – | – | – | – |
| CC1=C(/C=C/C(C)=C/C=C/C(C)=C/CO)C(C)(C)CCC1 [Sample 2-3, Retinol] | – | – | – | 3.50 | 2.30 | 3.95 | 3.05 |
| CC1=C(/C=C/C(C)=C/C=C/C(C)=C/CO)C(C)(C)CCC1 [Sample 1-2, Retinol] | 2.05 | 1.44 | 0.79 | – | – | – | – |
